Assay results reported in patent US20250163016A1, “PYRIDINE DERIVATIVE, PREPARATION METHOD THEREFOR AND USE THEREOF” (CHENGDU EASTON BIOPHARMACEUTICALS CO., LTD., priority 2022, published 2025).

Key:
LSD1 = biological target: T1, LSD1 (Homo sapiens, UniProt O60341); experiment: LSD1 activity test (HTRF); type: biochemical; details: H3(1-21)K4 me1-biotin substrate, read-out: IC50, inhibitory activity on LSD1
T1 construct: purchased Active Motif 31432
Procedure: In this test, a homogeneous time resolved fluorescence (HTRF) technology was utilized, and the inhibitory activity of compounds on LSD1 was detected by adopting a two-step method. The first step was to incubate LSD1, compounds of different concentrations, and a biotin-labeled methylated polypeptide substrate (H3(1-21)K4 me1-biotin) at the room temperature for fixed time.
A corresponding solution with a 1000-fold final concentration was formed by dilution in a 384-well Source plate, and then Echo550 was used for transferring 10 nL to a 384-well reaction plate for being tested.
An inhibition percentage was calculated using a maximum value, a minimum value, and a signal value (maximum value: fluorescence intensity of 5 μL of 2× enzyme solution+5 μL of 2× substrate mixed solution+10 nL of 100% DMSO+10 μL of detection solution; minimum value: fluorescence intensity of 5 μL of 1× reaction solution+5 μL of 2× substrate mixed solution+10 nL of 100% DMSO+10 μL of detection solution; and signal value: fluorescence intensity of 5 μL of 2× enzyme solution+5 μL of 2× substrate mixed solution+10 nL of diluted compound to be tested+10 μL of detection solution), and a calculation formula was as follows: […]
(§1) Using a logarithm of the concentration as an X axis and the percentage inhibition rate as a Y axis, a dose-response curve was fitted using a formula log(inhibitor) vs. response-Variable slope (Four parameters) of analysis software Graphpad Prism 5 to obtain the IC50 value of each compound on the enzyme activity.

[1] = Pharmacokinetics of oral administration of rats; type: in vivo; details: male, rat, SD rats, p.o. 5.0 mg/kg, plasma
Procedure: With SD rats as tested animals, blood drug concentrations in plasma at different moments after oral administration of the compounds of the present application by the rats in a clarification kit mode were determined using an LC-MS/MS method. Pharmacokinetic parameters of the compounds of the present application in the rats were obtained, and pharmacokinetic characteristics of the compounds were studied.
• SD rats, male, weight 180-220 g, 3 rats per group. The animals were fed in an animal house after being purchased, an adaptation period was at least 3 days, and they were used for tests after passing quarantine.
According to Table 4, each group of rats was given the corresponding tested drugs or positive drugs by gavage, before administration, and 15 min, 30 min, 1 h, 2 h, 4 h, 6 h, 8 h, and 24 h after administration, a fixed volume of blood was collected through eye sockets and placed in an EDTA-K2 anticoagulant tube, centrifuging was carried out at 8000 rpm for 1 min to separate plasma into a centrifuge tube, and the plasma was frozen in a −20° C. refrigerator.
The plasma at each time point stored at −20° C. was taken out, then acetonitrile was added, after whirling at 1500 revolutions for 2 min, centrifuging was carried out for 15 min (3500 r/min), and a fixed volume of solution supernatant was taken for LC-MS/MS analysis.
Non-compartment model fitting was carried out on pharmacokinetic behaviors of the tested compounds, and DAS3.31 software was adopted to calculate main pharmacokinetic parameters (T1/2, Tmax, Cmax, AUClast, etc.).

Kasumi-1 cells = experiment: Kasumi-1 cell proliferation inhibition test (Celltiter GLO); type: cell-based; details: Homo sapiens, 168 h, Kasumi-1, 7 days culture
Procedure: (§2) Research had confirmed that LSD1 played a crucial role in the occurrence process of various types of cancers, including small cell lung cancer (SCLC) and acute myeloid leukemia (AML). Therefore, a human acute myeloid leukemia (Kasumi-1) cell line was used to determine the ATP content in cells at different drug concentrations using a Celltiter GLO assay kit, the cell activity was reflected by luminescence intensity, and IC50 values of different compounds on Kasumi-1 cells were calculated using inhibition rates. The inhibitory effects of the compounds in the present application on the proliferation of Kasumi-1 cells were studied to evaluate the anti-tumor efficacy of the tested compounds at the cellular level.
(§3) • Day 1 Cells were seeded into the 384-well cell culture plate and placed in a 37° C. 5% CO2 cell incubator to be cultured overnight. • Day 0 The compound to be tested was prepared into a 10 mM mother liquid using DMSO, starting from 1 M, diluted by 3 folds, with 10 concentration points and double duplicate wells. A diluted compound was added into the 384-well cell culture plate and placed in a 37° C. 5% CO2 cell incubator to be cultured for 7 days. The concentration of the DMSO in a cell culture system was 0.1 vol %. • Day 7 Celltiter GLO was added into the 384-well cell culture plate according to a volume ratio of culture system:Celltiter GLO=1:1, light-shielded oscillation was carried out on a plate oscillator for 3 min, then the cell culture plate was placed at the room temperature for 30 min with light shielded, and the plate was read using a multifunctional microplate reader chemical light emitting module.
An inhibition rate was calculated by utilizing luminescence intensity of the above DMSO group (with DMSO added), test group (with the tested compound or a positive control solution added) and blank group (not treating cells), and a calculation formula was as follows: […]
as §1, with “Prism 8” for “Prism 5”, “on Kasumi-1 proliferation inhibition” for “on the enzyme”

NCI-H1417 cells = experiment: NCI-H1417 cell proliferation inhibition test (Celltiter GLO); type: cell-based; details: Homo sapiens, 168 h, NCI-H1417, 7 days culture
Procedure: as §2, with “small cell lung cancer (NCI-H1417)” for “acute myeloid leukemia (Kasumi-1)”, “kit, and” for “kit,”, “intensity.” for “intensity, and”, “the NCI-H1417” for “Kasumi-1”
as §3, with “μM,” for “M,”, “0.1%.” for “0.1 vol %.”
An inhibition percentage was calculated by utilizing luminescence intensity of the above DMSO group (with DMSO added), test group (with the tested compound and a positive control solution added) and blank group (not treating cells), a calculation formula being
as §1, with “Prism 8” for “Prism 5”, “on NCI-H1417 proliferation inhibition” for “on the enzyme”

Which IC50 (LSD1) does the source give for `CC(C)(O)Cn1ncc2cc(-c3c(C#N)cc(N4CCCNCC4)nc3-c3ccc(C#N)c(F)c3)c(F)cc21` [Compound 21, 2-(4-cyano-3-fluorophenyl)-6-(1,4-diazaniline-1-yl)-3-(6-fluoro-1-(2-hydroxyl-2-methylpropyl)-1H-indazol-5-yl)isonicotinonitrile] here?
The IC50 was 0.79 nM.

What about the AUC(0-t) [1] of the same compound?
The AUC(0-t) was 0.721 ± 0.125 µg·h/mL.

What about the Cmax [1] of the same compound?
Its Cmax is 0.0814 ± 0.017 µg/mL.

And the Tmax [1]?
The Tmax was 4.67 ± 1.15 h.

What about the half-life [1] of the same compound?
Its half-life is 2.84 ± 0.59 h.

What about the IC50 (Kasumi-1 cells) of the same compound?
Its IC50 is 1.03 nM.

What about the IC50 (NCI-H1417 cells) of the same compound?
Its IC50 is 6.51 nM.

Which IC50 (LSD1) does the source give for `CN1C(=O)Cc2cc(-c3c(C#N)cc(N4CCC(N)CC4)nc3-c3ccc(C#N)c(F)c3)ccc21` [Compound 18, 6-(4-aminopiperid-1-yl)-2-(4-cyano-3-fluorophenyl)-3-(1-methyl-2-oxoindol-5-yl)isonicotinonitrile] here?
The IC50 was 1.5 nM.

And the AUC(0-t) [1]?
The AUC(0-t) was 0.591 ± 0.292 µg·h/mL.

What about the Cmax [1] of the same compound?
The Cmax was 0.0772 ± 0.0321 µg/mL.

What about the Tmax [1] of the same compound?
The Tmax was 4 h.

And the half-life [1]?
The half-life was 2.94 ± 0.11 h.

And the IC50 (Kasumi-1 cells)?
The IC50 was 8.79 nM.

What about the IC50 (NCI-H1417 cells) of the same compound?
The IC50 was 33.3 nM.

Which IC50 (LSD1) does the source give for `Cn1ncc2cc(-c3c(C#N)cc(N4CCC(N)CC4)nc3-c3ccc(C#N)c(F)c3)ccc21` [Compound 4, 6-(4-aminopiperid-1-yl)-2-(4-cyano-3-fluorophenyl)-3-(1-methyl-1H-indazol-5-yl)isonicotinonitrile] here?
The IC50 was 0.47 nM.

What about the AUC(0-t) [1] of the same compound?
Its AUC(0-t) is 0.712 ± 0.0893 µg·h/mL.

And the Cmax [1]?
The Cmax was 0.055 ± 0.00772 µg/mL.

And the Tmax [1]?
Its Tmax is 6 h.

And the half-life [1]?
The half-life was 5.31 ± 0.24 h.

What about the IC50 (Kasumi-1 cells) of the same compound?
Its IC50 is 3.07 nM.

What about the IC50 (NCI-H1417 cells) of the same compound?
The IC50 was 16.7 nM.
